Data on six compounds can be found in US8921420B2, “Method for preparing dicaffeoylquinic acids and use thereof in combating aphids” (Institut National de la Recherche Agronomique, priority 2008, dated 2014).

Series [1] deals with Myzus persicae. Briefly: Toxicity test on larval development on Ap3 feeding medium (larval mortality, weight of wingless adults). The series is classed as in vivo. As to the method:
The goal is to quantify the toxic effect of 3,5-diCQ on the aphid throughout its larval development, namely 8 to 10 days for Myzus persicae at 19° C. The molecule is added at various concentrations to the Ap3 feeding medium.
(§1) The medium ([…]) is poured between two UV-sterilized Parafilm® membranes and drawn onto a cylindrical support made of PVC (h=1.5 cm, d=2 cm), under sterile conditions. On Day D0, 20 neonate larvae are placed inside the cylinder, which is then turned over and pressed onto a square of Parafilm®. The dishes are placed under dimmed light (16 hr day/8 hr night) and in an enclosure set at 19° C. The fixation percentage is recorded after 1 hour as a short-term phagostimulation indicator and in order to verify that no anomaly had occurred when the aphids were placed inside the cylinder. Larval mortality is noted daily at the end of the day. On Day D+3, the larvae are sampled and split up into two new dishes. On the day of their adult molt, the aphids that have reached the wingless adult stage are deposited successively onto a precision scale (d=0.01 mg) and the cumulative weights are recorded for each concentration of each tested molecule. Individual weights are calculated thereafter. The effects of a single molecule at all concentrations and the effects of the control medium are evaluated simultaneously during the same test. The tests are routinely performed in 3 repetitions.

The subject of series [2] is Myzus persicae. Briefly: Selection test between two media (phagostimulation index, repulsivity). The series is classed as in vivo. The conditions noted are these: for concentration at which significantly repulsive: against Ap3 control medium; for concentration at which the repulsive effect (negative phagostimulation index) is significant: tested against Ap3 medium, lowest concentration tested 0.25 mM. From the text: The method used is the one developed by Yvan Rahbé (Rahbé & Febvay (1993) Entomologia Experimentalis et Applicata 67: 149-160; Chen (1996) Thesis, Institut National des Sciences Appliquées, Lyon, France: 158 pp.) in the context of research on the chemical determinants of plant resistance to various aphid species (Aphis gossypii, Acyrthosiphon pisum), and adapted to the green peach aphid, Myzus persicae.
(§2) The goal is to evaluate the attractive or repulsive character of a candidate molecule, at various concentrations, either in relation to a control base medium or in relation to another substance. The base medium used, referred to as Ap3 (composition in the table in FIG. 10), was developed at the UMR INRA-INSA in Lyon in order to enable optimal development of the Acyrtosiphon pisum aphid species (Febvay et al. (1988) Canadian Journal of Zoology 66: 2149-2453). It also enables the development of Myzus persicae. This base medium may or may not be supplemented by the various phenolic acids tested. The aphid's selected behavior when placed in the presence of both media is studied inside a closed system where the insect has no alternative in order to feed itself but to select one of the two media. The device is shown in diagram form in FIG. 11.
The medium (35 μl) is poured between two Parafilm® membranes stretched onto an Eppendorf® cone. On a rack holding 6 experiment cages, a control medium is arranged opposite a test medium on each cage. The repetitions of a single modality (control medium or test medium) are arranged in alternating fashion along the rack, in order to prevent any systematic bias when the aphids are placed inside. At the end of the day, six aphid larvae (second or third stage) are placed inside each of the cages of one rack. Next, the racks are inserted into a black box placed inside a climate-controlled test chamber at 19° C. for 15 hours. This passage into darkness stabilizes the larvae's fixation more quickly. The following morning, the number of aphids fixed on each medium is recorded. The tests are performed in routine fashion on 24 selection repetitions (4 racks with 6 cages each). A phagostimulation index, representing the degree of desire for the aphid in the test medium, is calculated as follows: Phagostimulation index=(Test no.−Control no.)/Total no., wherein:
Test no.=Number of aphids fixed on the test medium,
Control no.=Number of aphids fixed on the control medium,
Total no.=Total number of fixed aphids.
Consequently, the value of the index ranges from −1 to 1. A negative index means that the test medium is repulsive in relation to the control medium, and a positive index means that the test medium is attractive. The hypothesis that the effect of the test medium is identical to that of the control medium is examined by the Wilcoxon rank test.
The tested phenolic substances other than 3,5-diCQ are of commercial origin apart from the caffeic acid methyl ester, which was synthesized. The molecules were characterized by mass spectrometry and proton nuclear magnetic resonance. The amount and stability of the dissolved molecules are monitored by HPLC after the molecules are dissolved in the Ap3 medium, at the beginning and at the end of the experiment.

For series [3], the system named is Acyrtosiphon pisum. Briefly: Selection test (phagorepulsive effect), first-stage larvae. The conditions noted are these: FIG. 21. The series is classed as in vivo, Acyrthosiphon pisum.
Text: as §2
(§3) The medium (35 μl) is poured between two Parafilm® membranes stretched onto an Eppendorf® cone. On a rack holding 6 experiment cages, a control medium is arranged opposite a test medium on each cage. […] The following morning, the number of aphids fixed on each medium is recorded. […] A phagostimulation index, representing the degree of desire for the aphid in the test medium, is calculated as follows: Phagostimulation index=(Test no.−Control no.)/Total no., wherein: […]

Series [4] deals with Acyrtosiphon pisum. Briefly: Toxicity test during larval development. The series is classed as in vivo. The conditions noted are these: FIG. 22. As to the method:
as §1
(§4) Regarding the toxicity tests, no changes were made to the protocol for tests on Macrosiphum euphorbiae. However, given the size and sensitivity to stress of Acyrthosiphon pisum, the number of individuals per dish was changed to 10, the number of repetitions per tested dose was changed to 4, and no change was made to the medium during the test, as excessive disturbance of the aphids would have resulted from doing so.

Series [5] has as its system Macrosiphum euphorbiae. The series is described as follows: Toxicity test during larval development. The conditions noted are these: FIG. 24. The series is classed as in vivo. On the procedure:
as §1, §4

Series [6] relates to Macrosiphum euphorbiae. Briefly: Selection test (phagorepulsive effect), first-stage larvae. The conditions noted are these: FIG. 23. The series is classed as in vivo.
Text: as §2, §3

For the next series, the system named is chewing insects. The conditions noted are these: Tamura et al. 2004; Mullin et al. 1991; cited from earlier work.
[7] abbreviates: FIG. 15, range 0.03125 to 1 mM, against Ap3.

Consider `O=C(/C=C/c1ccc(O)c(O)c1)O[C@@H]1C[C@](OC(=O)/C=C/c2ccc(O)c(O)c2)(C(=O)O)C[C@@H](O)[C@H]1O` [1,5-diCQ, 1,5-dicaffeoylquinic acid], for which the “toxic effect on larval development (in words)” value in the series with Myzus persicae [1] (in vivo) is reported as “toxic activity”.
As usually defined, the mortality is the percentage killed. Read a high mortality as a strong lethal effect. `O=C(/C=C/c1ccc(O)c(O)c1)O[C@@H]1CC(O)(C(=O)O)C[C@@H](OC(=O)/C=C/c2ccc(O)c(O)c2)C1O` (stereo partly drawn) [3,5-diCQ, 3,5-dicaffeoylquinic acid]: in the series with Myzus persicae [2] (0.03125 mM), the “repulsive effect at 0.03125 mM (in words)” value is “no toxic or repulsive effect”. Moreover, the “concentration at which significantly repulsive” value in the series with Myzus persicae [2] (FIG. 13) was found to be 0.125 mM. Also, in the series on Myzus persicae [2] (FIG. 13, tested against each other, at 0.125 mM), the “choice between 3,5-diCQ and chlorogenic acid at a single molarity” value is on record as “systematically selects CA rather than 3,5-diCQ”. Moreover, in the series on Myzus persicae [2] (FIG. 14, pH 7.5, CA four times higher), the “repulsive effect of 0.5 mM versus chlorogenic acid at 2 mM” value is reported as “remains repulsive”. Further, the “dose with highly significant repulsive effect” value with Myzus persicae [2] (setting [7]) worked out at 0.125 mM. The “minimum concentration at which repulsive effect is detectable” value was determined as 125 µM in the series on Myzus persicae [2] (in vivo) and 64.5 mg/L in the series with Myzus persicae [2] (same value converted). In addition, the “repulsive effect / activity (in words)” value in the series on Myzus persicae [2] (in vivo) is “repulsive activity”. Besides, the “toxic effect at 0.03125 mM (in words)” value in the series with Myzus persicae [1] (0.03125 mM) is given as “no toxic or repulsive effect”. Besides, the “reaching the wingless adult stage” value in the series with Myzus persicae [1] (1 and 2 mM concentrations) is on record as “no aphids reached the wingless adult stage”. This compound displayed a larval mortality with Myzus persicae [1] (FIG. 16, at 2 mM) of about 100%. The “dose starting at which significant depressive effect on weight of wingless adults” value with Myzus persicae [1] (FIG. 17) came out at 0.25 mM. Besides, in the series with Myzus persicae [1] (FIG. 20), the “dose with significant depressive effect on weight of wingless adults” value is given as 0.5 mM. Also, the “toxic effect on larval development (in words)” value in the series on Myzus persicae [1] (in vivo) is recorded as “high mortality”; with Myzus persicae [1] (in vivo, listed as 3,5-dicaffeoylquinic acid), “toxic activity”. Further, the “dose starting at which significant repulsive effect” value with Acyrtosiphon pisum [3] was determined as 0.03125 mM. Also, the mortality entry with Acyrtosiphon pisum [4] (starting at 0.03125 mM, within 2 days) is recorded as “exceeds 50%”; in the series on Acyrtosiphon pisum [4] (starting at 0.25 mM, within 4 days) it was 100%; in the series on Macrosiphum euphorbiae [5] (0.25 mM dose, within 6 days) it was about 100%; in the series on Macrosiphum euphorbiae [5] (0.5 and 1 mM doses, within 3 to 7 days), 100%. Moreover, in the series with Macrosiphum euphorbiae [6], the “dose starting at which highly significant repulsive effect” value was 0.125 mM. The “effect on feeding of chewing insects (in words)” value with chewing insects is given as “phagostimulating effect”.
As for `O=C(/C=C/c1ccc(O)c(O)c1)O[C@H]1[C@H](O)C[C@](O)(C(=O)O)C[C@H]1OC(=O)/C=C/c1ccc(O)c(O)c1` [4,5-diCQ, 4,5-dicaffeoylquinic acid], in the series with Myzus persicae [2] (setting [7]), the “dose starting at which significant repulsive effects were detected” value was 0.03125 mM and the “dose with highly significant repulsive effect” value came to 0.125 mM. In the series on Myzus persicae [2] (in vivo), the “repulsive effect / activity (in words)” value is reported as “repulsive activity”. Also, the “dose with significant depressive effect on weight of wingless adults” value in the series on Myzus persicae [1] (FIG. 20) is 0.25 mM. Also, the “toxic effect on larval development (in words)” value in the series with Myzus persicae [1] (in vivo) is listed as “toxic activity”.
Regarding `O=C(O)/C=C/c1ccc(O)cc1` [Para-coumaric acid, para-coumaric acid, reference compound], the “repulsive effect (in words)” value with Myzus persicae [2] (FIG. 12, concentration range tested, against Ap3 medium) was “no repulsive effect”.
Take `O=C(/C=C/c1ccc(O)c(O)c1)O[C@@H]1C[C@](O)(C(=O)O)C[C@@H](O)[C@H]1O` [chlorogenic acid, 5-caffeoylquinic acid, reference compound]: the “concentration at which the repulsive effect (negative phagostimulation index) is significant” value in the series on Myzus persicae [2] (FIG. 12) was 0.5 mM. The “concentration at which significantly repulsive” value in the series on Myzus persicae [2] (FIG. 13) was determined as 0.25 mM. In addition, in the series with Myzus persicae [1] (FIG. 18), the “effect on weight of wingless adults (in words)” value is “probiotic effect”. In the series with Myzus persicae [1] (in vivo), the larval mortality is listed as at most 10% and the “toxic effect on larval development (in words)” value is recorded as “no negative effects”.
Turning to `O=C(/C=C/c1ccc(O)c(O)c1)O[C@@H]1C[C@@](OC(=O)/C=C/c2ccc(O)c(O)c2)(C(=O)O)C[C@@H](O)[C@@H]1O` [cynarin], the “concentration at which the repulsive effect (negative phagostimulation index) is significant” value with Myzus persicae [2] (FIG. 12) was 1 mM. Besides, the “effect on the aphids' weights (in words)” value with Myzus persicae [1] (FIG. 20, at the 0.25 mM dose) is given as “no effect”.
